Assay results taken from patent US7935707B2, “Imidazole derivatives” (Hoffman-La Roche Inc., priority 2007, dated 2011).

biological target: T1, human chemokine receptor 2 isoform B (Homo sapiens, UniProt P41597); assay: Calcium mobilization assay; type: cell-based; settings: CHOK1-CCR2B-A5 cells; antagonist activity against 20 nM MCP-1; FLIPR, Fluo-4
T1 construct: host or cells: CHOK1-CCR2B-A5 (CHO-K1)
T1 sequence (P41597 1-360 isoform P41597-2): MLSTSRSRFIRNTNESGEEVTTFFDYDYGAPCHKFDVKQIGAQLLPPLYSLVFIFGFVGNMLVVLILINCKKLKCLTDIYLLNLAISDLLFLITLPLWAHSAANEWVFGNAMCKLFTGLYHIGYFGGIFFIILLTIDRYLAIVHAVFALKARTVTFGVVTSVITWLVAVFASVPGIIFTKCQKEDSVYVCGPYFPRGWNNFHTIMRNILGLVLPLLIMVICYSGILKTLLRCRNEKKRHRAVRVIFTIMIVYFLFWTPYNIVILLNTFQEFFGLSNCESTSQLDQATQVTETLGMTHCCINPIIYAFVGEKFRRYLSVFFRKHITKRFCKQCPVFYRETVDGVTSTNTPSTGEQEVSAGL
Protocol: Calcium Mobilization Assay
CHOK1-CCR2B-A5 cells (from Euroscreen) stably overexpressing the human chemokine receptor 2 isoform B were cultured in Nutrient Hams F12 medium supplemented with 5% FBS, 100 U/ml penicillin, 100 μg/ml streptomycin, 400 μg/ml G418 and 5 μg/ml puromycin. For the assay cells were grown overnight in 384-well black clear flat bottom polystyrene plates (Costar) at 37° C. at 5% CO2. After washing with DMEM, 20 mM Hepes, 2.5 mM probenecid, 0.1% BSA (DMEM assay buffer) cells were loaded with 4 μM Fluo-4 in the same DMEM assay buffer for 2 hours at 30° C. Excess dye was removed and cells were washed with DMEM assay buffer. 384-well compound plates were prepared with DMEM assay buffer/0.5% DMSO with or without various concentrations of test compounds. Usually compounds were tested for agonist and antagonist activity.
Test compounds were added to the assay plate and agonist activity was monitored as fluorescence for 80 seconds with a FLIPR (488 nm excitation; 510-570 nm emission; Molecular Devices). After 20-30 min. of incubation at 30° C., 20 nM MCP-1 (R&D; Roche) was added and fluorescence was monitored again for 80 seconds. Increases in intracellular calcium are reported as maximum fluorescence after agonist exposure minus basal fluorescence before exposure. Antagonist activity is indicated as inhibitor concentration required for 50% inhibition of specific calcium increases.

| Structure (SMILES) | IC50 [nM] |
| --- | --- |
| CCCCCCc1cccc(-c2nc(I)c(C(=O)N3CCC(N(CC)CC)C3)n2C)c1 (racemic) [Example 1, (rac)-(3-Diethylamino-pyrrolidin-1-yl)-[2-(3-hexyl-phenyl)-5-iodo-3-methyl-3H-imidazol-4-yl]-methanone] | 120 |
| Cn1c(-c2cccc(OC(F)(F)F)c2)nc(-c2cncnc2)c1C(=O)N1CCC(N2CCCC2)CC1 [Example 22, [3-Methyl-5-pyrimidin-5-yl-2-(3-trifluoromethoxy-phenyl)-3H-imidazol-4-yl]-(4-pyrrolidin-1-yl-piperidin-1-yl)-methanone] | 90 |
| Cn1c(-c2cccc(C(F)(F)F)c2)nc(I)c1C(=O)N1CCC(N2CCCC2)CC1 [Example 36, [5-Iodo-3-methyl-2-(3-trifluoromethyl-phenyl)-3H-imidazol-4-yl]-(4-pyrrolidin-1-yl-piperidin-1-yl)-methanone] | 18 |
| Cn1c(-c2cccc(OC(F)(F)F)c2)nc(I)c1C(=O)N1CCC(N2CCC[C@@H]2CO)CC1 [Example 46, [4-((R)-2-Hydroxymethyl-pyrrolidin-1-yl)-piperidin-1-yl]-[5-iodo-3-methyl-2-(3-trifluoromethoxy-phenyl)-3H-imidazol-4-yl]-methanone] | 160 |

Continued, values first:

| IC50 [nM] | Structure (SMILES) |
| --- | --- |
| 130 | CCCCCCc1cccc(-c2nc(I)c(C(=O)N3CCCN(CCO)CC3)n2C)c1 [Example 3, [2-(3-Hexyl-phenyl)-5-iodo-3-methyl-3H-imidazol-4-yl]-[4-(2-hydroxy-ethyl)-[1,4]diazepan-1-yl]-methanone] |
| 35 | C#Cc1nc(-c2cccc(CCCCCC)c2)n(C)c1C(=O)N1CCC(N2CCCC2)CC1 [Example 13, [5-Ethynyl-2-(3-hexyl-phenyl)-3-methyl-3H-imidazol-4-yl]-(4-pyrrolidin-1-yl-piperidin-1-yl)-methanone] |
| 75 | CCCCCCc1cccc(-c2nc(C#N)c(C(=O)N3CCC(N4CCCC4)CC3)n2C)c1 [Example 18, 2-(3-Hexyl-phenyl)-1-methyl-5-(4-pyrrolidin-1-yl-piperidine-1-carbonyl)-1H-imidazole-4-carbonitrile] |
| 71 | CCc1nc(-c2cccc(OC(F)(F)F)c2)n(C)c1C(=O)N1CCC(N2CCCC2)CC1 [Example 25, [5-Ethyl-3-methyl-2-(3-trifluoromethoxy-phenyl)-3H-imidazol-4-yl]-(4-pyrrolidin-1-yl-piperidin-1-yl)-methanone] |
